Literature values in patent US20100120744A1, “ACETAM[…] NMDA RECEPTORS” (AUSPEX PHARMACEUTICALS, INC., priority 2008, published 2010).

Conditions: in vivo

Question: Which “metabolism by the body” value does the source give for `CC(=O)NCCCS(=O)(=O)O` [Acamprosate, 3-acetamidopropane-1-sulfonic acid] here?
Answer: not metabolized
